Test results from PMC4628094, “In Vitro Assessment of Uptake and Lysosomal Sequestration of Respiratory Drugs in Alveolar Macrophage Cell Line NR8383” (Pharmaceutical Research, 2015).
Where two headings read alike, the source gives them in different places. Marks after values point to notes of the source that are not given here.

Experiments:
[1] = cited from earlier work
[2] = Physicochemical properties, experimental literature values (Table I); conditions: classification in Table I
[3] = tested on: NR8383 cell line and granule fraction (containing lysosomes); conditions: NH4Cl 10 mM, drug 50 µM, ref (12), cited from earlier work
[4] = tested on: Lung granule fraction containing lysosomes from male Wistar rats; design: method as in ref (6) (a number printed in a supplementary file, which may have a reference list of its own: not looked up in the article's list); conditions: NH4Cl 10 mM, drug 1 µM, 10 min; ref (6); cited from earlier work
[5] = Drug uptake in NR8383 at 37 and 4°C (CLuptake, CLdiff, Kp); conditions: rat
Description: (§1) The studies were carried out in a 24-well plate format and the in vitro conditions were optimised in terms of cell detachment method from culture flasks, coating type of 24-well plates, seeding density, culturing time and drug incubation time points. Briefly, for cell detachment, gentle scraping versus Mg^2+-Ca^2+ free DPBS treatment of cells in culture flasks were tested. Considering the semi-adherent nature of AMs, cell seeding into non-coated, collagen-I and poly-D-lysine coated 24-well plates was investigated for cell attachment, distribution in the wells and detachment following DPBS washes during the uptake experiments. In addition, seeding densities of 0.36 and 0.72 × 10^6 cells per well were assessed with respect to cell attachment, confluency following culture (plating efficiency) and potential cell detachment following DPBS washes. Culturing time ranging from 4 to 24 h was investigated for optimal cell attachment before carrying out uptake experiments. Uptake rate and Kp data were normalised by cell number determined indirectly by measuring the amount of protein in samples by bicinchoninic acid (BCA) protein assay (Thermo Scientific, Loughborough, UK). Following the optimisation, detachment of NR8383 from cell culture flasks was performed by gentle scraping prior to cell counting and seeding into collagen-I coated 24-well plates at 0.5 × 10^6 cells per well. Cells were cultured for 16 h at 37°C, 5% CO2 (CO2 incubator, MCO-17AIC, Sanyo Biomedical, Loughborough, UK) before uptake studies performed over 1 to 10 min period.
(§2) The drug uptake in NR8383 corresponding to these conditions was described by total uptake (CLuptake) and passive diffusion (CLdiff) clearance terms, respectively. […] Substrate solutions were prepared by dilution of the stock solutions in DPBS resulting in final DMSO content < 1%. Uptake studies were performed in the presence of 1 mM ABT, a nonspecific P450 inhibitor, in order to avoid any potential impact of phase I metabolism. […] Following microscopy, the CGM was removed, cells were washed twice with 800 μL of either pre-warmed or ice-cold DPBS (for experiments at 37 and 4°C, respectively) and pre-incubation with 500 μL of pre-warmed or ice-cold ABT/DPBS was carried out for 20 min. Where ABT pre-treatment was not necessary, cell monolayers were treated with 500 μL of DPBS only. Once pre-incubation buffer was removed from the cell monolayers, incubations were started by addition of 400 μL of substrate solution (pre-warmed or ice-cold) in each well. Each substrate was incubated with the cells for 1, 2, 5 and 10 min and each time point at 37°C and 4°C. For 37°C experiments, incubation was carried out on a dry heater block maintained at 37°C throughout the experiment (Tecam Dri-block DB-3, Tecam, Princeton, NJ) and for 4°C experiments, the procedure was carried out on ice. Incubation with substrate was stopped by removal of the media with drug solution and washing the monolayers three times with 800 μL ice-cold DPBS. The back-diffusion of the drug from the cell into the medium was considered to be negligible under these conditions. The removed incubation media were retained for the measurement of drug medium concentrations and subsequent determination of Kp for each drug. The cells were lysed by addition of 200 μL ice-cold deionised water; cell lysates were kept at −20°C overnight and then processed further for LC-MS/MS analysis. Experiments were performed on three or more separate occasions for each drug investigated. […] The amount of protein per well was measured using a BSA calibration curve and absorbances read at 562 nm (S22 Boeco UV-Visible Spectrophotometer, Hamburg, Germany).

NR8383 cells [6] = experiment: as above; conditions: NR8383, 5 μM; for Contribution of passive (%): CLdiff relative to CLuptake
Description: as §1, §2

[7] = Lysosomal sequestration studies in NR8383 with NH4Cl, monensin and nigericin; conditions: rat; for Kp at 10 min, 5 μM: NR8383, 5 μM drug; for Kp at 10 min, 20 µM: NR8383, 20 µM drug
Description: (§3) The extent of accumulation of drugs in lysosomes was assessed using the same uptake methodology, as described above in the absence and presence of NH4Cl and ionophores, monensin and nigericin. […] In addition, a range of incubation conditions was explored, including pre-incubation and co-incubation alone and combined together. Once the conditions were optimised, further experiments were performed with 20 mM NH4Cl co-incubated with investigated drugs. […] For incubations with monensin and nigericin, all drugs were prepared at 5 μM concentration and the incubations were carried out for 5 min (single time point). Following the treatment of the cell monolayers with drug alone or drug with the agents mentioned, incubations were stopped by washing of the cells with ice-cold DPBS as described above, followed by cell lysis in deionised water. All incubations were carried out in duplicate and experiments were performed for three separate occasions. The removed incubation media were retained for the measurement of drug concentrations and subsequent determination of Kp for each compound. Analysis of samples in LC-MS/MS was performed after cells were kept at −20°C overnight.
(§4) Kp and CLuptake were determined as described above for each drug both under control condition and in the presence of a chemical agent affecting the pH gradient between cytosol and lysosomes. The reduction in Kp and CLuptake of each drug in the presence of the chemical agents was expressed as a percentage relative to control and used as an indicator of the extent of lysosomal sequestration. A 50% reduction in both parameters was set as a cut-off for lysosomal accumulation, while also taking into account the physicochemical properties of the compounds (Table I) and the uncertainty associated with the experimental data.
(§5) The in vitro parameters were calculated on at least three separate occasions and the mean data were reported. When assessing the extent of lysosomal sequestration, the control and chemical agent treated cells were compared using the two-tailed, paired t-test in order to determine statistically significant difference between the two conditions. Values were reported as significant when p < 0.05.

NR8383 cells [8] = experiment: as above; conditions: for % Reduction in Kp by NH4Cl: NH4Cl 20 mM; for reduction in Kp in the presence of chemical agents (summary in Discussion): NR8383, NH4Cl, monensin, nigericin
Description: as §3, §4, §5

[9] = experimental value, ref ([21])-([30]) per drug, Table I
[10] = NR8383 cells, Kp (cell-to-medium concentration ratio), NR8383, 5 μM, 37°C, 10 min
[11] = NR8383 cells, Kp + NH4Cl, 20 mM NH4Cl co-incubated, 10 min
[12] = NR8383 cells, Kp + NH4Cl, 20 mM NH4Cl
[13] = NR8383 cells, Kp Control, control

Row | SMILES | Acid–base Property [2] | Reduction in total uptake (%) [4] [%] | Kp at 10 min, 5 μM [5, 10] | Contribution of passive (%) (NR8383 cells [6]) | Kp at 10 min, 5 μM [7, 11] | Kp at 10 min, 20 µM [7, 12] | Kp at 10 min, 5 μM [7, 13] | Kp at 10 min, 20 µM [7, 13] | % Reduction in Kp by NH4Cl (NR8383 cells [8]; NR8383, 5 μM drug) [%] | % Reduction in Kp by NH4Cl (NR8383 cells [8]; NR8383, 20 µM drug) | % Reduction in CLuptake by NH4Cl (20 mM) (NR8383 cells [8]; NR8383, at 5 µM drug) | % Reduction in CLuptake by NH4Cl (20 mM) (NR8383 cells [8]; NR8383, at 20 µM drug) | reduction in Kp in the presence of chemical agents (summary in Discussion) (NR8383 cells [8]) | further results
1 | CO[C@H]1/C=C/O[C@@]2(C)Oc3c(C)c(O)c4c(O)c(c(/C=N/N5CCN(C)CC5)c(O)c4c3C2=O)NC(=O)/C(C)=C\C=C\[C@H](C)[C@H](O)[C@@H](C)[C@@H](O)[C@@H](C)[C@H](OC(C)=O)[C@@H]1C [Rifampicin] | Zwitterion |  |  |  |  |  |  |  |  |  |  |  |  | LogD7.4 [1, 9]: 0.3; pKa_b (basic pKa) [1, 9]: 6.70
2 | CC[C@H]1OC(=O)[C@H](C)[C@@H](O[C@H]2C[C@@](C)(OC)[C@@H](O)[C@H](C)O2)[C@H](C)[C@@H](O[C@@H]2O[C@H](C)C[C@H](N(C)C)[C@H]2O)[C@](C)(O)C[C@@H](C)CN(C)[C@H](C)[C@@H](O)[C@]1(C)O [Azithromycin] |  |  |  |  |  |  |  |  |  |  |  |  |  | Reduction in total uptake (%) ([3]; Granule, after subcellular fractionation, 30 min): 72%; Reduction in total uptake (%) ([3]; before subcellular fractionation, azithromycin 120 min, clarithromycin 60 min): 97%
3 | CC(CN1c2ccccc2Sc2ccccc21)N(C)C (stereo not drawn) [Promethazine] |  | 17 |  |  |  |  |  |  |  |  |  |  |  | 
4 | CC(C)=CCN1CCC2(C)c3cc(O)ccc3CC1C2C (stereo not drawn) [Pentazocine] |  | 77 |  |  |  |  |  |  |  |  |  |  |  | 
5 | C[N+]1(C)[C@@H]2C[C@@H](OC(=O)C(O)(c3cccs3)c3cccs3)C[C@H]1[C@@H]1O[C@@H]12 [Tiotropium bromide] | Permanently cationic |  | 8.74 ± 7.24 | 16.3 | 3.87 ± 2.61 | 2 ± 0.64 | 4.39 ± 2.9 | 2.4 ± 1 | 12 ± 1.8 | 35 ± 26% | 15 ^a % | 28 ^a % | < 15% | 
6 | CC(C)(C)NCC(O)c1cc(O)cc(O)c1 (stereo not drawn) [Terbutaline] | Base |  | ~1 | 47.6 | 0.72 ± 0.31 | 0.56 ± 0.29 | 0.92 ± 0.39 | 0.79 ± 0.46 | 21 ± 5.0 | 22^ a % | 15 ± 15% | 36 ± 23% | 20–40% | LogD7.4 ([1]; Average value of two studies, ref ([27],[28])): −1.50 ^b; pKa_a (acidic pKa) [1, 9]: 8.60; pKa_b (basic pKa) [1, 9]: 9.90; hepatocyte CLint at 5 μM ([5]; NR8383 cells): < 1 µL/min/1e6 cells; Kp (cell-to-medium concentration ratio) (NR8383 cells [6]; 37°C, 10 min): 0.69 ± 0.16
7 | CN(C)CCCN1c2ccccc2Sc2ccc(Cl)cc21 [Chlorpromazine] |  | 8 |  |  |  |  |  |  |  |  |  |  |  | 
8 | CC(Cc1ccc(O)cc1)NCC(O)c1cc(O)cc(O)c1 (stereo not drawn) [Fenoterol] | Base |  |  | 8.03 |  |  |  |  | 31 ± 23 | 27 ± 24% | 36 ± 12% | 22 ± 28% | 20–40% | LogD7.4 [1, 9]: 0.74; Kp at 10 min, 5 μM [5]: 5.69 ± 0.98; hepatocyte CLint at 5 μM ([5]; other cell line): < 1 µL/min/1e6 cells; Kp at 10 min, 5 μM ([7]; Kp + NH4Cl, 20 mM NH4Cl co-incubated, 10 min): 2.91 ± 2.11; Kp at 10 min, 20 µM ([7]; Kp + NH4Cl, 20 mM NH4Cl): 0.96 ± 0.33; Kp at 10 min, 5 μM ([7]; Kp Control, control): 4.25 ± 2.64; Kp at 10 min, 20 µM ([7]; Kp Control, control): 1.5 ± 0.93; % Reduction in Kp by Monensin (NR8383 cells [8]; NR8383, 5 μM drug, monensin 5 μM, 5 min): 27 ± 25%; % Reduction in Kp by Nigericin (NR8383 cells [8]; NR8383, 5 μM drug, nigericin 10 μM, 5 min): 30 ± 12%; % Reduction in CLuptake by Monensin (5 µM) (NR8383 cells [8]; NR8383, at 5 µM drug): 29 ± 21%; % Reduction in CLuptake by Nigericin (10 µM) (NR8383 cells [8]; NR8383, at 5 µM drug): 25 ± 15%
9 | CCCC1O[C@@H]2C[C@H]3[C@@H]4CCC5=CC(=O)C=C[C@]5(C)[C@H]4[C@@H](O)C[C@]3(C)[C@]2(C(=O)CO)O1 (stereo partly drawn) [Budesonide] | Neutral |  | 37.6 ± 11.4 | 97.2 | 28.1 ± 7.12 | 31 ± 12 | 31.5 ± 8.46 | 34 ± 12.5 | 10 ± 7.8 | 6.6 ± 4.1% | 18 ± 15% |  | < 15% | 
